The compounds below were run against T1, PIKfyve (Homo sapiens, UniProt Q9Y2I7) (assay: Degradation of PIKfyve proteins in VCaP tumor cells (24 h, Western blot)). Conditions: 37° C., compared with DMSO control, WB, read-out: DC50 (concentration that achieves 50% degradation activity).
T1 construct: endogenous in cells; host or cells: VCaP
Type: cell-based
Description: Method: 200 μL of cells at a density of 5×10^6 cells/ml were inoculated into a 6-well plate, and then different concentrations of drugs were added. The cells were treated at 37° C. for 24 h. The […] was collected and washed with PBS twice. Then, 100-200 μL of 1×SDS lysate was added, and the cell lysate was collected into a centrifuge tube. The cells were disrupted ultrasonically for 10-20 sec, and boiled for 10 min. Protein samples were subjected to SDS-PAGE electrophoresis at a voltage of 90 V, transferred to PVDF membranes at 110 V, blocked with 5% BSA for 4 h, incubated with primary antibodies (PIKfyve, GAPDH) at 4° C. overnight, and incubated with secondary antibodies (anti-Rabbit IgG or anti-Mouse IgG) at room temperature. The membranes were washed with TBST buffer, developed with an ECL developing solution, and then imaged to obtain protein band signals, with single-concentration WB results as shown in FIG. 1. Compared with the DMSO control group, the concentration that achieves 50% degradation activity is defined as DC50.

T1 sequence (Q9Y2I7 whole entry): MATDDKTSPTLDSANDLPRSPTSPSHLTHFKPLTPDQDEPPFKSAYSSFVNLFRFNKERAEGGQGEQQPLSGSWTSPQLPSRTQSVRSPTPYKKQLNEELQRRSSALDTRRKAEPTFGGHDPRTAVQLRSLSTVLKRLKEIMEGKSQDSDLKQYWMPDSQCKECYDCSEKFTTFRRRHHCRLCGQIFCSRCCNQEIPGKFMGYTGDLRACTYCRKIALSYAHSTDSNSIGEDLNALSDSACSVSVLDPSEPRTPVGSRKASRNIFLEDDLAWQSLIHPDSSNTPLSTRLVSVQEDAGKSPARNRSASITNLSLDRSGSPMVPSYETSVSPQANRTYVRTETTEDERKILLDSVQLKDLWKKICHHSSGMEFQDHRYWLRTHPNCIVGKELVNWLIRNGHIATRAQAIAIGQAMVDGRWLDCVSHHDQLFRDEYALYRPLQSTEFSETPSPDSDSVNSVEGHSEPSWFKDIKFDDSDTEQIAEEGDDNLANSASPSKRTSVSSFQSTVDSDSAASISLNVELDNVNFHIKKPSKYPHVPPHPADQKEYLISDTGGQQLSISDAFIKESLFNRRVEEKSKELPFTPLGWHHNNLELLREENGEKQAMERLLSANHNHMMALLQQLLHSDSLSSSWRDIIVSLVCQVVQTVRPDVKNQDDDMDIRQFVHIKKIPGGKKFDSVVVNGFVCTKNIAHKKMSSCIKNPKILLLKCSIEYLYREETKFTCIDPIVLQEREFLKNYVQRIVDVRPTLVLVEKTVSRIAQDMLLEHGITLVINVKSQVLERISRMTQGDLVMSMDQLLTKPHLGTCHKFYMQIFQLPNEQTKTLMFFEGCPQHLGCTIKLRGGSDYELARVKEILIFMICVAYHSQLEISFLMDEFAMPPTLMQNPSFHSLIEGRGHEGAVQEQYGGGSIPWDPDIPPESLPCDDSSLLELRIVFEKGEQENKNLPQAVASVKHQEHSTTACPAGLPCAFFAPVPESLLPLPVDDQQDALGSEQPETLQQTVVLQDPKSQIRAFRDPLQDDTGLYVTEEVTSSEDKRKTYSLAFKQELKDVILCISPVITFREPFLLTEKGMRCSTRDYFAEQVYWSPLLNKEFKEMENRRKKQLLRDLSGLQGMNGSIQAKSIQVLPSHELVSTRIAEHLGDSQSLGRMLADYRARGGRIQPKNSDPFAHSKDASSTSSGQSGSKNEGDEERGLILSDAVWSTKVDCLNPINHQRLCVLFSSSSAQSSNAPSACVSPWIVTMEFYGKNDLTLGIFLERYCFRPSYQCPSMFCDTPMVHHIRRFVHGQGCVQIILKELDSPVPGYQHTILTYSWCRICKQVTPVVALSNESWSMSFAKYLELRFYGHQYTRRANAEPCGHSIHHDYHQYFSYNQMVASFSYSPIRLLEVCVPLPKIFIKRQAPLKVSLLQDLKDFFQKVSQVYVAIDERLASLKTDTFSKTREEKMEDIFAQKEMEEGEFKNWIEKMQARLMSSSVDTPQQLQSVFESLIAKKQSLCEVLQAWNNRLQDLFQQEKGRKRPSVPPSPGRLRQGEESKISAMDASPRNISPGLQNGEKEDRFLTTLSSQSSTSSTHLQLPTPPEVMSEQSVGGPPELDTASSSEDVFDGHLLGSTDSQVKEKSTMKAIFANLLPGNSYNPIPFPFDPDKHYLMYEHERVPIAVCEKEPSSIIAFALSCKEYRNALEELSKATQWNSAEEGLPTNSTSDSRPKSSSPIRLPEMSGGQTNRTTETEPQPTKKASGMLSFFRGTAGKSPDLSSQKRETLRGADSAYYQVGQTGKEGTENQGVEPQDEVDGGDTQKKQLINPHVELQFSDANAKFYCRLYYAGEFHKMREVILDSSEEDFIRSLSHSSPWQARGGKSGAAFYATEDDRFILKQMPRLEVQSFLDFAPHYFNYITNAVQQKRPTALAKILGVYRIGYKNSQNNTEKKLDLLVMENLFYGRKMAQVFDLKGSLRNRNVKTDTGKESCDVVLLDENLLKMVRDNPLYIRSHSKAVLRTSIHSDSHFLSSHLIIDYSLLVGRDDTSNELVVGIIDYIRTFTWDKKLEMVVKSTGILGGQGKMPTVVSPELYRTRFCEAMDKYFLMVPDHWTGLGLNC

DC50 [nM]	Compound
1 to 100	Cc1cccc(-c2ccn(-c3cc(N4CCOCC4)nc(OCCc4ccc(C#CC5CCN(C(=O)CC[C@H](NC(=O)[C@@H]6C[C@@H](O)CN6C(=O)[C@@H](NC(=O)C6(F)CC6)C(C)(C)C)c6ccc(-c7scnc7C)cc6)CC5)cc4)n3)n2)c1 [Example 71, (2S,4R)-1-((S)-2-(1-fluorocyclopropane-1-carboxamido)-3,3-dimethylbutanoyl)-4-hydroxy-N—((S)-1-(4-(4-methylthiazol-5-yl)phenyl)-4-(4-((4-(2-((4-morpholino-6-(3-(m-tolyl)-1H-pyrazol-1-yl)pyrimidin-2-yl)oxy)ethyl)phenyl)ethynyl)piperidin-1-yl)-4-oxobutyl) pyrrolidine-2-carboxamide]
100 to 10000	Cc1cccc(-c2ccn(-c3cc(N4CCOCC4)nc(OC4CCN(c5ccc(NC(=O)NC6CN(c7cc8c(cc7F)C(=O)N(C7CCC(=O)NC7=O)C8=O)C6)cc5)CC4)n3)n2)c1 (stereo not shown) [Example 93, 1-(1-(2-(2,6-Dioxopiperidin-3-yl)-6-fluoro-1,3-dioxoisoindolin-5-yl)azetidin-3-yl)-3-(4-(4-((4-morpholino-6-(3-(m-tolyl)-1H-pyrazol-1-yl)pyrimidin-2-yl)oxy)piperidin-1-yl)phenyl)urea]
1 to 100	Cc1cccc(/C=N/Nc2cc(N3CCOCC3)nc(OCCc3ccc(NC(=O)CCCCC(=O)Nc4ccc5c(c4)C(=O)N(C4CCC(=O)NC4=O)C5)cc3)n2)c1 (stereo not shown) [Example 29, (E)-N^1-(2-(2,6-dioxopiperidin-3-yl)-3-oxoisoindolin-5-yl)-N^6-(4-(2-((4-(2-(3-methylbenzylidene)hydrazino)-6-morpholinopyrimidin-2-yl)oxy)ethyl)phenyl)adipamide]
1 to 100	Cc1cccc(-c2ccn(-c3cc(N4CCOCC4)nc(OCCc4ccc(N5CCN(C(=O)CCCC[C@H](NC(=O)[C@@H]6C[C@@H](O)CN6C(=O)[C@@H](NC(=O)C6(F)CC6)C(C)(C)C)c6ccc(-c7scnc7C)cc6)CC5)cc4)n3)n2)c1 [Example 77, (2S,4R)-1-((S)-2-(1-fluorocyclopropane-1-carboxamido)-3,3-dimethylbutanoyl)-4-hydroxy-N—((S)-1-(4-(4-methylthiazol-5-yl)phenyl)-6-(4-(4-(2-((4-morpholino-6-(3-(m-tolyl)-1H-pyrazol-1-yl)pyrimidin-2-yl)oxy)ethyl)phenyl)piperazin-1-yl)-6-oxohexyl)pyrrolidine-2-carboxamide]
100 to 10000	Cc1cccc(/C=N/Nc2cc(N3CCOCC3)nc(OCCNC(=O)CCC(=O)N[C@H](C(=O)N3C[C@H](O)C[C@H]3C(=O)NCc3ccc(-c4scnc4C)cc3)C(C)(C)C)n2)c1 [Example 61, N^1—((S)-1-((2S,4R)-4-hydroxy-2-((4-(4-methylthiazol-5-yl)benzyl)carbamoyl)pyrrolidine-1-yl)-3,3-dimethyl-1-oxobutan-2-yl)-N^4-(2-((4-(2-((E)-3-methylbenzylidene) hydrazino)-6-morpholinopyrimidin-2-yl)oxy)ethyl)succinimide]
1 to 100	Cc1cccc(-c2ccn(-c3cc(N4CCOCC4)nc(OC4CCN(c5ccc(N6CCN(C(=O)CC[C@H](NC(=O)[C@@H]7C[C@@H](O)CN7C(=O)[C@@H](NC(=O)C7(F)CC7)C(C)(C)C)c7ccc(-c8scnc8C)cc7)CC6)cc5)CC4)n3)n2)c1 [Example 85, (2S,4R)-1-((S)-2-(1-fluorocyclopropane-1-carboxamido)-3,3-dimethylbutanoyl)-4-hydroxy-N—((S)-1-(4-(4-methylthiazol-5-yl)phenyl)-4-(4-(4-(4-((4-morpholino-6-(3-(m-tolyl)-1H-pyrazol-1-yl)pyrimidin-2-yl)oxy)piperidin-1-yl)phenyl)piperazin-1-yl)-4-oxobutyl) pyrrolidine-2-carboxamide]
100 to 10000	Cc1cccc(/C=N/Nc2cc(N3CCOCC3)nc(OCCc3ccc(NC(=O)CCCCCOc4ccc5c(c4)C(=O)N(C4CCC(=O)NC4=O)C5=O)cc3)n2)c1 (stereo not shown) [Example 8, (E)-6-((2-(2,6-dioxopiperidin-3-yl)-1,3-dioxoisoindolin-5-yl)oxy)-N-(4-(2-((4-(2-(3-methylbenzylidene)hydrazino)-6-morpholinopyrimidin-2-yl)oxy)ethyl)phenyl)hexanamide]
1 to 100	Cc1cccc(/C=N/Nc2cc(N3CCOCC3)nc(OCCc3ccc(NC(=O)CC[C@H](NC(=O)[C@@H]4C[C@@H](O)CN4C(=O)[C@@H](NC(=O)C4(F)CC4)C(C)(C)C)c4ccc(-c5scnc5C)cc4)cc3)n2)c1 [Example 49, (2S,4R)-1-((S)-2-(1-fluorocyclopropane-1-carboxamido)-3,3-dimethylbutanoyl)-4-hydroxy-N—((S)-4-((4-(2-((4-(2-((E)-3-methylbenzylidene)hydrazino)-6-morpholinopyrimidin-2-yl)oxy)ethyl)phenyl)amino)-1-(4-(4-methylthiazol-5-yl)phenyl)4-oxobutyl)pyrrolidine-2-carboxamide]
100 to 10000	Cc1cccc(/C=N/Nc2cc(N3CCOCC3)nc(OCCc3ccc(NC(=O)CCCCCCCNc4ccc5c(c4)C(=O)N(C4CCC(=O)NC4=O)C5=O)cc3)n2)c1 (stereo not shown) [Example 18, (E)-8-((2-(2,6-dioxopiperidin-3-yl)-1,3-dioxoisoindolin-5-yl)amino)-N-(4-(2-((4-(2-(3-methylbenzylidene)hydrazino)-6-morpholinopyrimidin-2-yl)oxy)ethyl)phenyl) octanamide]
1 to 100	Cc1cccc(/C=N/Nc2cc(N3CCOCC3)nc(OCCc3ccc(NC(=O)CCCCCCCCCC(=O)N[C@H](C(=O)N4C[C@H](O)C[C@H]4C(=O)NCc4ccc(-c5scnc5C)cc4)C(C)(C)C)cc3)n2)c1 [Example 44, N^1—((S)-1-((2S,4R)-4-hydroxy-2-((4-(4-methylthiazol-5-yl)benzyl)carbamoyl)pyrrolidine-1-yl)-3,3-dimethyl-1-oxobutan-2-yl)-N^11-(4-(2-((4-(2-((E)-3-methylbenzylidene) hydrazino)-6-morpholinopyrimidin-2-yl)oxy)ethyl)phenyl)undecanediamide]
100 to 10000	Cc1cccc(/C=N/Nc2cc(N3CCOCC3)nc(OCCc3ccc(NC(=O)CCCCCCCCCCC(=O)Nc4cccc5c4CN(C4CCC(=O)NC4=O)C5=O)cc3)n2)c1 (stereo not shown) [Example 23, (E)-N^1-(2-(2,6-dioxopiperidin-3-yl)-1-oxoisoindolin-4-yl)-N^12-(4-(2-((4-(2-(3-methylbenzylidene)hydrazino)-6-morpholinopyrimidin-2-yl)oxy)ethyl)phenyl)dodecanediamide]
100 to 10000	Cc1cccc(/C=N/Nc2cc(N3CCOCC3)nc(OCCc3ccc(NC(=O)CCCCCCCCC(=O)Nc4cccc5c4C(=O)N(C4CCC(=O)NC4=O)C5)cc3)n2)c1 (stereo not shown) [Example 35, (E)-N^1-(2-(2,6-dioxopiperidin-3-yl)-3-oxoisoindolin-4-yl)-N^10-(4-(2-((4-(2-(3-methylbenzylidene)hydrazino)-6-morpholinopyrimidin-2-yl)oxy)ethyl)phenyl)decanediamide]
1 to 100	Cc1cccc(-c2ccn(-c3cc(N4CCOCC4)nc(OC4CCN(c5ccc(NC(=O)NC6CN(C(=O)CC[C@H](NC(=O)[C@@H]7C[C@@H](O)CN7C(=O)[C@@H](NC(=O)C7(F)CC7)C(C)(C)C)c7ccc(-c8scnc8C)cc7)C6)cc5)CC4)n3)n2)c1 [Example 81, (2S,4R)-1-((S)-2-(1-fluorocyclopropane-1-carboxamido)-3,3-dimethylbutanoyl)-4-hydroxy-N—((S)-1-(4-(4-methylthiazol-5-yl)phenyl)-4-(3-(3-(4-(4-((4-morpholino-6-(3-(m-tolyl)-1H-pyrazol-1-yl)pyrimidin-2-yl)oxy)piperidin-1-yl)phenyl)ureido)azetidin-1-yl)-4-oxobutyl)pyrrolidine-2-carboxamide]
